Data taken from PubChem BioAssay (NCI).
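Where inhibition never reached the appropriate level, the endpoint shown equals the highest concentration tested. Otherwise, values were interpolated linearly from a five-concentration, 48-hour dose response in 96-well plates. The concentration for full growth arrest is given as TGI.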

system: HT29 colon; experiment: DTP human tumour cell line panel, 48 h

SMILES	TGI
CSc1c(C(=O)Nc2ccc(C)cc2)c(N)[nH]c(=O)c1C#N	> 100 µM
C(=Nc1ccc(-c2nc3ccccc3s2)cc1)c1ccco1	> 100 µM
CC(=O)/C(=C/n1c(=S)sc2ccccc21)C(=O)Nc1ccccc1C	> 100 µM
O=C1CC(c2ccc([N+](=O)[O-])cc2)C2(C(=O)NC(=S)NC2=O)C(c2ccc([N+](=O)[O-])cc2)C1 (stereo unspecified)	> 100 µM
N#CSCc1cccc(Nc2cc(=O)[nH]c(=O)[nH]2)c1	> 100 µM

system: MDA-MB-435; experiment: DTP human tumour cell line panel, 48 h

SMILES	TGI
Cc1nc2cc(C(F)(F)F)ccc2[nH]c1=O	> 100 µM
Nc1ncnc2c1ncn2C(=O)NC12CC3CC(CC(C3)C1)C2	> 100 µM
CSc1c(C(=O)Nc2ccc(C)cc2)c(N)[nH]c(=O)c1C#N	> 100 µM
C(=Nc1ccc(-c2nc3ccccc3s2)cc1)c1ccco1	> 100 µM
CC(=O)/C(=C/n1c(=S)sc2ccccc21)C(=O)Nc1ccccc1C	> 100 µM
O=C1CC(c2ccc([N+](=O)[O-])cc2)C2(C(=O)NC(=S)NC2=O)C(c2ccc([N+](=O)[O-])cc2)C1 (stereo unspecified)	40.4 µM
N#CSCc1cccc(Nc2cc(=O)[nH]c(=O)[nH]2)c1	> 100 µM

system: UACC-257 melanoma; experiment: DTP human tumour cell line panel, 48 h

SMILES	TGI
Cc1nc2cc(C(F)(F)F)ccc2[nH]c1=O	> 100 µM
Nc1ncnc2c1ncn2C(=O)NC12CC3CC(CC(C3)C1)C2	> 100 µM
CSc1c(C(=O)Nc2ccc(C)cc2)c(N)[nH]c(=O)c1C#N	> 100 µM
C(=Nc1ccc(-c2nc3ccccc3s2)cc1)c1ccco1	> 100 µM
CC(=O)/C(=C/n1c(=S)sc2ccccc21)C(=O)Nc1ccccc1C	> 100 µM
O=C1CC(c2ccc([N+](=O)[O-])cc2)C2(C(=O)NC(=S)NC2=O)C(c2ccc([N+](=O)[O-])cc2)C1 (stereo unspecified)	40.9 µM
N#CSCc1cccc(Nc2cc(=O)[nH]c(=O)[nH]2)c1	> 100 µM

system: HCT-116 colon; experiment: DTP human tumour cell line panel, 48 h

SMILES	TGI
Cc1nc2cc(C(F)(F)F)ccc2[nH]c1=O	> 100 µM
Nc1ncnc2c1ncn2C(=O)NC12CC3CC(CC(C3)C1)C2	> 100 µM
CSc1c(C(=O)Nc2ccc(C)cc2)c(N)[nH]c(=O)c1C#N	> 100 µM
C(=Nc1ccc(-c2nc3ccccc3s2)cc1)c1ccco1	> 100 µM
CC(=O)/C(=C/n1c(=S)sc2ccccc21)C(=O)Nc1ccccc1C	> 100 µM
O=C1CC(c2ccc([N+](=O)[O-])cc2)C2(C(=O)NC(=S)NC2=O)C(c2ccc([N+](=O)[O-])cc2)C1 (stereo unspecified)	32.4 µM
N#CSCc1cccc(Nc2cc(=O)[nH]c(=O)[nH]2)c1	> 100 µM

system: BT-549 breast; experiment: DTP human tumour cell line panel, 48 h

SMILES	TGI
Cc1nc2cc(C(F)(F)F)ccc2[nH]c1=O	> 100 µM
Nc1ncnc2c1ncn2C(=O)NC12CC3CC(CC(C3)C1)C2	> 100 µM
CSc1c(C(=O)Nc2ccc(C)cc2)c(N)[nH]c(=O)c1C#N	> 100 µM
C(=Nc1ccc(-c2nc3ccccc3s2)cc1)c1ccco1	> 100 µM
CC(=O)/C(=C/n1c(=S)sc2ccccc21)C(=O)Nc1ccccc1C	> 100 µM
O=C1CC(c2ccc([N+](=O)[O-])cc2)C2(C(=O)NC(=S)NC2=O)C(c2ccc([N+](=O)[O-])cc2)C1 (stereo unspecified)	34.1 µM
N#CSCc1cccc(Nc2cc(=O)[nH]c(=O)[nH]2)c1	> 100 µM

system: HS 578T breast; experiment: DTP human tumour cell line panel, 48 h

SMILES	TGI
Cc1nc2cc(C(F)(F)F)ccc2[nH]c1=O	> 100 µM
Nc1ncnc2c1ncn2C(=O)NC12CC3CC(CC(C3)C1)C2	> 100 µM
CSc1c(C(=O)Nc2ccc(C)cc2)c(N)[nH]c(=O)c1C#N	> 100 µM
C(=Nc1ccc(-c2nc3ccccc3s2)cc1)c1ccco1	> 100 µM
O=C1CC(c2ccc([N+](=O)[O-])cc2)C2(C(=O)NC(=S)NC2=O)C(c2ccc([N+](=O)[O-])cc2)C1 (stereo unspecified)	88.2 µM
N#CSCc1cccc(Nc2cc(=O)[nH]c(=O)[nH]2)c1	> 100 µM

system: NCI-H460 lung; experiment: DTP human tumour cell line panel, 48 h

SMILES	TGI
Cc1nc2cc(C(F)(F)F)ccc2[nH]c1=O	> 100 µM
Nc1ncnc2c1ncn2C(=O)NC12CC3CC(CC(C3)C1)C2	> 100 µM
CSc1c(C(=O)Nc2ccc(C)cc2)c(N)[nH]c(=O)c1C#N	> 100 µM
C(=Nc1ccc(-c2nc3ccccc3s2)cc1)c1ccco1	> 100 µM
CC(=O)/C(=C/n1c(=S)sc2ccccc21)C(=O)Nc1ccccc1C	> 100 µM
O=C1CC(c2ccc([N+](=O)[O-])cc2)C2(C(=O)NC(=S)NC2=O)C(c2ccc([N+](=O)[O-])cc2)C1 (stereo unspecified)	42.2 µM
N#CSCc1cccc(Nc2cc(=O)[nH]c(=O)[nH]2)c1	> 100 µM

system: UACC-62 melanoma; experiment: DTP human tumour cell line panel, 48 h

SMILES	TGI
Cc1nc2cc(C(F)(F)F)ccc2[nH]c1=O	> 100 µM
Nc1ncnc2c1ncn2C(=O)NC12CC3CC(CC(C3)C1)C2	> 100 µM
CSc1c(C(=O)Nc2ccc(C)cc2)c(N)[nH]c(=O)c1C#N	> 100 µM
C(=Nc1ccc(-c2nc3ccccc3s2)cc1)c1ccco1	> 100 µM
CC(=O)/C(=C/n1c(=S)sc2ccccc21)C(=O)Nc1ccccc1C	> 100 µM
O=C1CC(c2ccc([N+](=O)[O-])cc2)C2(C(=O)NC(=S)NC2=O)C(c2ccc([N+](=O)[O-])cc2)C1 (stereo unspecified)	32.6 µM
N#CSCc1cccc(Nc2cc(=O)[nH]c(=O)[nH]2)c1	> 100 µM

system: A498 renal; experiment: DTP human tumour cell line panel, 48 h

SMILES	TGI
Cc1nc2cc(C(F)(F)F)ccc2[nH]c1=O	> 100 µM
Nc1ncnc2c1ncn2C(=O)NC12CC3CC(CC(C3)C1)C2	> 100 µM
CSc1c(C(=O)Nc2ccc(C)cc2)c(N)[nH]c(=O)c1C#N	> 100 µM
C(=Nc1ccc(-c2nc3ccccc3s2)cc1)c1ccco1	99.3 µM
CC(=O)/C(=C/n1c(=S)sc2ccccc21)C(=O)Nc1ccccc1C	> 100 µM
O=C1CC(c2ccc([N+](=O)[O-])cc2)C2(C(=O)NC(=S)NC2=O)C(c2ccc([N+](=O)[O-])cc2)C1 (stereo unspecified)	85 µM
N#CSCc1cccc(Nc2cc(=O)[nH]c(=O)[nH]2)c1	> 100 µM

system: ACHN renal; experiment: DTP human tumour cell line panel, 48 h

SMILES	TGI
Cc1nc2cc(C(F)(F)F)ccc2[nH]c1=O	> 100 µM
Nc1ncnc2c1ncn2C(=O)NC12CC3CC(CC(C3)C1)C2	> 100 µM
C(=Nc1ccc(-c2nc3ccccc3s2)cc1)c1ccco1	> 100 µM
CC(=O)/C(=C/n1c(=S)sc2ccccc21)C(=O)Nc1ccccc1C	> 100 µM
O=C1CC(c2ccc([N+](=O)[O-])cc2)C2(C(=O)NC(=S)NC2=O)C(c2ccc([N+](=O)[O-])cc2)C1 (stereo unspecified)	40.4 µM
N#CSCc1cccc(Nc2cc(=O)[nH]c(=O)[nH]2)c1	> 100 µM

system: SNB-19 CNS; experiment: DTP human tumour cell line panel, 48 h

SMILES	TGI
Cc1nc2cc(C(F)(F)F)ccc2[nH]c1=O	> 100 µM
Nc1ncnc2c1ncn2C(=O)NC12CC3CC(CC(C3)C1)C2	> 100 µM
CSc1c(C(=O)Nc2ccc(C)cc2)c(N)[nH]c(=O)c1C#N	> 100 µM
C(=Nc1ccc(-c2nc3ccccc3s2)cc1)c1ccco1	> 100 µM
CC(=O)/C(=C/n1c(=S)sc2ccccc21)C(=O)Nc1ccccc1C	> 100 µM
O=C1CC(c2ccc([N+](=O)[O-])cc2)C2(C(=O)NC(=S)NC2=O)C(c2ccc([N+](=O)[O-])cc2)C1 (stereo unspecified)	43.5 µM
N#CSCc1cccc(Nc2cc(=O)[nH]c(=O)[nH]2)c1	> 100 µM

system: SW-620 colon; experiment: DTP human tumour cell line panel, 48 h

SMILES	TGI
Cc1nc2cc(C(F)(F)F)ccc2[nH]c1=O	> 100 µM
Nc1ncnc2c1ncn2C(=O)NC12CC3CC(CC(C3)C1)C2	> 100 µM
CSc1c(C(=O)Nc2ccc(C)cc2)c(N)[nH]c(=O)c1C#N	> 100 µM
C(=Nc1ccc(-c2nc3ccccc3s2)cc1)c1ccco1	> 100 µM
CC(=O)/C(=C/n1c(=S)sc2ccccc21)C(=O)Nc1ccccc1C	> 100 µM
O=C1CC(c2ccc([N+](=O)[O-])cc2)C2(C(=O)NC(=S)NC2=O)C(c2ccc([N+](=O)[O-])cc2)C1 (stereo unspecified)	> 100 µM
N#CSCc1cccc(Nc2cc(=O)[nH]c(=O)[nH]2)c1	> 100 µM

system: HOP-92 NSCLC; experiment: DTP human tumour cell line panel, 48 h

SMILES	TGI
Cc1nc2cc(C(F)(F)F)ccc2[nH]c1=O	> 100 µM
Nc1ncnc2c1ncn2C(=O)NC12CC3CC(CC(C3)C1)C2	> 100 µM
C(=Nc1ccc(-c2nc3ccccc3s2)cc1)c1ccco1	> 100 µM
CC(=O)/C(=C/n1c(=S)sc2ccccc21)C(=O)Nc1ccccc1C	> 100 µM
O=C1CC(c2ccc([N+](=O)[O-])cc2)C2(C(=O)NC(=S)NC2=O)C(c2ccc([N+](=O)[O-])cc2)C1 (stereo unspecified)	> 100 µM
N#CSCc1cccc(Nc2cc(=O)[nH]c(=O)[nH]2)c1	85.7 µM

system: SNB-75 CNS; experiment: DTP human tumour cell line panel, 48 h

SMILES	TGI
Cc1nc2cc(C(F)(F)F)ccc2[nH]c1=O	> 100 µM
Nc1ncnc2c1ncn2C(=O)NC12CC3CC(CC(C3)C1)C2	> 100 µM
CSc1c(C(=O)Nc2ccc(C)cc2)c(N)[nH]c(=O)c1C#N	> 100 µM
C(=Nc1ccc(-c2nc3ccccc3s2)cc1)c1ccco1	> 100 µM
CC(=O)/C(=C/n1c(=S)sc2ccccc21)C(=O)Nc1ccccc1C	> 100 µM
O=C1CC(c2ccc([N+](=O)[O-])cc2)C2(C(=O)NC(=S)NC2=O)C(c2ccc([N+](=O)[O-])cc2)C1 (stereo unspecified)	> 100 µM
N#CSCc1cccc(Nc2cc(=O)[nH]c(=O)[nH]2)c1	> 100 µM

system: CCRF-CEM leukemia; experiment: DTP human tumour cell line panel, 48 h

SMILES	TGI
Cc1nc2cc(C(F)(F)F)ccc2[nH]c1=O	> 100 µM
Nc1ncnc2c1ncn2C(=O)NC12CC3CC(CC(C3)C1)C2	> 100 µM
CSc1c(C(=O)Nc2ccc(C)cc2)c(N)[nH]c(=O)c1C#N	> 100 µM
